Earlier results, collected in US8758826B2, “Cannabinoid receptor binding agents, compositions, and methods” (Wet Inc., priority 2011, dated 2014).

Columns and labels:
CB2 = CB2 (Homo sapiens, UniProt P34972); conditions: higher for CB2 than CB1
[1] = test system: rats with a partial urethral obstruction
keratinocyte = conditions: in vitro and in situ
histamine-induced itch = conditions: topically applied

Sequence of CB2 (P34972 whole entry, species assumed): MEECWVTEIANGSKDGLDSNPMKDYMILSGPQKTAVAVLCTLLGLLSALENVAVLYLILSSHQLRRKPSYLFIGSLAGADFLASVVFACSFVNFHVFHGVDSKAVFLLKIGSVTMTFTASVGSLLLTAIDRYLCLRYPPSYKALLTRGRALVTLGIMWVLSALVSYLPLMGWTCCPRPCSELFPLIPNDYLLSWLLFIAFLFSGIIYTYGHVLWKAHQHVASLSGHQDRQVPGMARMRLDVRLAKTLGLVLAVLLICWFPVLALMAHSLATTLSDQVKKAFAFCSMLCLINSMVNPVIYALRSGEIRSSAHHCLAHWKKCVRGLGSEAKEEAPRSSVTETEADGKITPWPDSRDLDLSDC

In the case of `CCCCCc1cc(O)c2c(c1)OC(C)(C)c1ccc(C)cc1-2` [Cannabinol], the “Binding affinity to CB2 than to CB1” value (CB2) is given as 10 fold.
For `CCCCCCC(C)(C)c1cc(O)c([C@H]2CC(=O)[C@H]3C[C@@H]2C3(C)C)c(OC(=O)/C=C/C(=O)O)c1` [Cannabinor], the Bladder emptying [1] is listed as “improves bladder emptying”.
For `CCCCC/C=C\C/C=C\C/C=C\C/C=C\CCCC(=O)NCCO` [anandamide, N-arachidonoylethanolamide], the Hair shaft elongation (human hair follicle) is listed as “dose-dependently inhibited”, the “Intraepithelial apoptosis and premature HF regression (catagen)” value (human hair follicle) is listed as “induced” and the “Proliferation of hair matrix keratinocytes” value (human hair follicle) is listed as “dose-dependently inhibited”. The Cell death (keratinocyte) was “induces cell death” and the Keratinocyte proliferation (keratinocyte) was “markedly suppresses”.
In the case of `CCCCCCC(C)(C)c1cc(O)c2c(c1)OC(C)(C)[C@@H]1CC=C(CO)C[C@@H]21` [HU-210], the Histamine-induced itch (histamine-induced itch) is given as “capable of reducing histamine-induced itch”.
In the case of `CCCCCc1cc(O)c2c(c1)OC(C)(C)[C@@H]1CCC(C)=C[C@@H]21` [THC, Δ9-tetrahydrocannabinol], the “Action at CB1” value (CB1) is listed as “agonist”, the Hair shaft elongation (human hair follicle) is listed as “dose-dependently inhibited” and the “Intraepithelial apoptosis and premature HF regression (catagen)” value (human hair follicle) is listed as “induced”. For the same compound, the “Proliferation of hair matrix keratinocytes” value (human hair follicle) was “dose-dependently inhibited” and the “Melanin content of the hair follicle” value (hair follicle) was “significantly and dose-dependently suppressed”.
In the case of `Cc1c(C(=O)NN2CCCCC2)nn(-c2ccc(Cl)cc2Cl)c1-c1ccc(Cl)cc1` [SR141716], the Sperm motility (human sperm) is given as “enhance sperm motility”.
In the case of `COc1cc(/C=C/C(=O)CC(=O)/C=C/c2ccc(O)c(OC)c2)ccc1O` [curcumin], the “Apoptosis in melanoma cells” value (melanoma cells) is listed as “induce apoptosis” and the “Proliferation of melanoma cells” value (melanoma cells) is listed as “suppress proliferation”.
